The target in experiment [1] is T1, Hsσ1-R (Homo sapiens, UniProt Q99720). The experiment in a line: Fluorescence titration (intrinsic tryptophan fluorescence quenching) of purified Hsσ1-R.
Text: Since the intrinsic fluorescence of tryptophan residues within a given protein depends on the tryptophan’s environment, when a molecule binds near tryptophan residues it can lead to fluorescence intensity quenching (Figure 6). Thanks to the fact that two of the tryptophan residues (i.e., Trp89 and Trp164) are part of the previously identified Hsσ1-R binding site (Supplementary Figure S11), we were able to perform fluorescence titration to measure the affinity of selected molecules for this receptor.
Binding of ligands to Hsσ1-R was followed by measuring the intrinsic protein fluorescence on a Fluoromax-4 spectrofluorometer (Horiba-Jobin Yvon). Fluorescence spectra were collected at 25 °C using a 1 cm path length cuvette, under continuous stirring. The excitation wavelength was 280 nm, and emission was recorded between 300 and 450 nm. The protein was used at 100 nM concentration in a buffer containing 0.01% LMNG, 0.001% CHS, 100 mM NaCl and 20 mM HEPES pH 7.5. The ligands were added to the protein solution, starting from a 10 mM stock solution in 100% DMSO, at a final concentration within the range 0.01 to 100 μM. The measurements were performed after each addition, following 3 min of incubation.
This equation describes a two-site model in which the binding sites are independent of each other, and at each site the interaction is non-cooperative [71]:(2) ΔF=ΔFmax1×Ltot/KD1+Ltot+ΔFmax2×Ltot/KD2+Ltot where: ΔF is the fluorescence quenching due to ligand binding; ΔFmax is the maximum fluorescence quenching possible in the experiment; [L]tot is the total concentration of the ligand; and KD1 and KD2 are the dissociation constants for the two sites.
Experiment [2] deals with T1, Hsσ1-R. Set-up: FLAG; made in house; host or cells: Sf9 insect cells (baculovirus, pFastbac1); method as in PMID 33525510. Conditions: purified σ1R immobilized on a matrix; read-out: KD by SPR; cited from earlier work.
Setting [3] is: read-out: KD2, low-affinity site, two-site model, 25 °C.

SMILES strings stand for the structures. Like-named read-outs stand apart in the source and are kept apart here.

T1 sequence (Q99720 whole entry): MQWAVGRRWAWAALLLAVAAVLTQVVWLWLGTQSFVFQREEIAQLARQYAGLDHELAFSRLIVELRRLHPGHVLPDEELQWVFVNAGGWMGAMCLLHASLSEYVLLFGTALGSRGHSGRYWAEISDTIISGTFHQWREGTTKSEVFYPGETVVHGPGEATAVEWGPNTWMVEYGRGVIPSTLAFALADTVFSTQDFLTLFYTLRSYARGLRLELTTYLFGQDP

On to `CC(=O)C1=CC[C@H]2[C@@H]3CCC4=CC(=O)CC[C@]4(C)[C@H]3CC[C@]12C` [16,17-didehydroprogesterone], for which the Kd at Hsσ1-R [1] (read-out: KD1, high-affinity site, two-site model, 25 °C) is 0.01 ± 0.004 µM; on Hsσ1-R [1] (setting [3]), 15.8 ± 4.03 µM. The “KD for the high affinity site, fold better than that of pridopidine” value on Hsσ1-R [1] (versus pridopidine, same assay) is on record as 25 fold.

For `COc1cc(C(C)=O)ccc1OCCCN1CCC(c2noc3cc(F)ccc23)CC1` [Iloperidone], the figures for the Kd on Hsσ1-R [2], at Hsσ1-R [1] and at Hsσ1-R [1] (setting [3]) were 5 µM, 0.019 ± 0.015 µM and 33.1 ± 14.4 µM, respectively.

The values are drawn from PMC10094450, “Investigation of the Entry Pathway and Molecular Nature of σ1 Receptor Ligands” (International Journal of Molecular Sciences, 2023).
